# Laboratory results from patent US20240141408A1, “CELL-BASED ASSAY FOR IDENTIFICATION OF ACTIVATORS OF GAMMA-SECRETASE” (The Brigham and Women’s Hospital, Inc., priority 2021, published 2024).
# System: γ-secretase
# Assay: Notch target gene reporter (Hes1-Luc / NotchΔE) luciferase assay in stable MEFs
# Type: cell-based, mouse
# Conditions: L435F KI/+ stable cells, clone A23; FIG. 4
# Procedure: For screening, cells were seeded in 384-well plates using Thermo Multidrop Combi at a density of 2,500 cells in 30 μl media and compounds were transferred by Seiko Compound Transfer Robot on the same day. For dose response, compounds were dispensed via the Hewlett Packard D300.
# The steady glo luciferase assay system (Promega) was used to determine firefly luciferase activity per manufacturer's instructions. Luciferase activity was detected 24 hours after transfection using a plate reader (Perkin Elmer EnVision).
# MEFs (1.5×10^6) were seeded in two 10-cm tissue culture plates; one to be used as a negative control. The next day, one plate is transfected with 9 μg CMV-NotchΔE (neomycin) and […] Hes1Luciferase (hygromycin) plasmids. 24-hours later, cells in both plates were passaged 1:100, 1:200 and 1:1000 and maintained in DMEM media supplied with 10% FBS, 100 ug/ml Hygromycin, and 200 μg/ml G418. Media was changed every 3 days and cells were checked daily ensuring that cells in the untransfected plates (negative control) have died. Within two weeks, hygromycin/G418 resistant colonies were formed with a diameter of approximately 5 mm. Each clone was transferred into a separate well of a 24-well plate. When confluent, MEFs were transferred into 6-well plates then into 10 cm dishes. For each clone, some cells were frozen while others harvested to test luciferase and notchΔE expression via luciferase assay, western blot and Q-RT-PCR.
# For the identification of compounds that could increase the activity of γ-secretase, a Notch target gene reporter system was created. It contains two plasmids: Hes1 proximal promoter containing two Notch responsive CBF1/RBPJκ binding sites driving expression of a firefly luciferase in a hygromycin resistant plasmid (Hes1-Luc-Hygro), and CMV promoter and NotchΔE cloned in a neomycin resistant plasmid (CMV-NΔE-Neo) (FIG. 1A).
# For the identification of compounds that could increase γ-secretase activity, L435F KI/+ stable cells expressing both CMV-NΔE-Neo and Hes1-Luc-hygro were generated. Luciferase expression in the selected clones was confirmed via a luciferase assay (FIG. 3A). We also performed quantitative RTPCR using primers specific for luciferase and Notch-cMyc to confirm their expression (FIG. 3B-C).
# After generating the stable cells, 384-well plates were optimized in the EnVision plate reader for plate dimension, and crosstalk correction. To provide a robust (high Z′ factor) HTS-compatible assay, four clones expressing different levels of NotchΔE and luciferase (FIG. 3A-C, black arrows) were compared to identify the maximum difference in signal between DMSO, and DAPT (γ-secretase inhibitor), as well as genetic positive (a clone expressing high levels of luciferase) controls. […]
row,luciferase activity,SMILES
1,lesser effect,COc1ccc2c(c1)c(CC(=O)O)c(C)n2C(=O)c1ccc(Cl)cc1 [Indomethacin]
2,reduction of luciferase activity,"CC(C)C[C@H](NC(=O)[C@H](Cc1ccccc1)C[C@@H](O)[C@H](Cc1ccccc1)NC(=O)OC(C)(C)C)C(=O)N[C@@H](Cc1ccccc1)C(N)=O [L685,458]"
3,lesser effect,C[C@@H](C(=O)O)c1ccc(-c2ccccc2)c(F)c1 [R-Flurbiprofen]
4,reduction of luciferase activity,C[C@H](NC(=O)Cc1cc(F)cc(F)c1)C(=O)N[C@H](C(=O)OC(C)(C)C)c1ccccc1 [DAPT]
